Data from ChEMBL document CHEMBL4219163, “Discovery of 2,6-disubstituted pyrazine derivatives as inhibitors of CK2 and PIM kinases” (Bioorg Med Chem Lett, 2018).

How the values were obtained:
[1] = Oral bioavailability in Wistar Han rat at 10 mg/kg; assay type: ADME, organism-based; settings: in vivo
[2] = Half life in Wistar Han rat at 3 mg/kg, iv; assay type: ADME, organism-based; settings: in vivo
[3] = Lipophilicity, log D of the compound; assay type: physicochemical; settings: octanol/water
[4] = Cmax in Wistar Han rat at 3 mg/kg, iv or 10 mg/kg, po; assay type: ADME, organism-based; settings: in vivo
[5] = AUC (0 to t) in Wistar Han rat at 3 mg/kg, iv or 10 mg/kg, po; assay type: ADME, organism-based; settings: in vivo
[6] = Clearance in Wistar Han rat at 3 mg/kg, iv; assay type: ADME, organism-based; settings: in vivo
[7] = Volume of distribution at steady state in Wistar Han rat at 3 mg/kg, iv or 10 mg/kg, po; assay type: ADME, organism-based; settings: in vivo, read-out: Vdss

Row | Structure (SMILES) | bioavailability [1] [%] | half-life [2] [h] | logD [3] | Cmax [4] [nM] | AUC(0-t) [5] [µM·h] | clearance [6] [mL/min/kg] | Vd [7] [L/kg]
1 | CC(C)Nc1ccc2cnn(-c3cncc(-c4ccc(C(=O)O)cc4)n3)c2c1 | 24 | 7.1 | 1.06 | 830 | 5.5 | 19 | 1
2 | CC(C)Nc1ccc2ccn(-c3cncc(-c4ccc(C(=O)O)cc4)n3)c2c1 | 80 | 1 |  | 2900 | 5.5 | 56 | 1.8
